Results published in US6753348B2, “BTK inhibitors and methods for their identification and use” (Parker Hughes Institute, priority 1998, dated 2004).

Assays:
[1] = system: OVA-sensitized and challenged mice; test: Airway responsiveness to methacholine in mouse model of allergic asthma; assay type: in vivo; conditions: ovalbumin sensitized and challenged, N = 5-6 mice
Procedure: FIG. 28: Inhibition of airway hyperresponsiveness by LFM-A8 in mice. Mice were sensitized with ovalbumin (OVA) on days 0 and 14 intraperitoneally. On days 20, 21 and 23, mice were challenged for 15 min with 2% OVA via airways using a untrasonic nebulizer. After 24 h of the last OVA challenge airway responsiveness to increasing concentrations of methacholine was measured. To study the effect of LFM-A8 on airway hyperresponsiveness, mice were injected intraperitoneally with indicated concentrations of LFM-A8 or vehicle on day 20, 21, and 23 1 h prior and 2 h post OVA challenge and airway responsiveness to increasing concentrations of methacholine was measured. The data points represent the mean±SEM values (N=5-6 mice).
Mouse Model of Allergic Asthma. BALB/c mice were injected intraperitoneally with 20 μg of ovalbumin (OVA) in alum on day 0, and 14. On days 21, 22 and 23 the mice were challenged for 15 min with 2% OVA via their airways by ultrasonic nebulization (Takeda, K., et al., (1997) J Exp Med, 186, 449-454). In order to study the effect of LFM-A8 on allergic asthma, mice were treated with LFM-A8 or vehicle 2 h prior to OVA challenge on day 21, 22 and 23. Mice were assessed for “airway responsiveness” on day 24, as previously reported (Takeda, K., et al., (1997) J Exp Med, 186, 449-454; Hamelmann, E., et al., (1997) Am J Respir Crit Care Med, 156, 766-775) and described below.
Determination of Airway Responsiveness. Airway responsiveness was measured in unrestrained mice by noninvasive whole body plethysmography using a BUXCO BioSystem plethysmography instrument (BUXCO, Trou, N.Y.) (Hamelmann, E., et al., (1997) Am J Respir Crit Care Med, 156, 766-775). The chamber pressure was measured with a transducer connected to a preamplifier module and analyzed by system XA software) (Hamelmann, E., et al., (1997) Am J Respir Crit Care Med, 156, 766-775). The chamber pressure was used as a measure of the difference between thoracic volume expansion or contraction and air volume removed or added to the chamber during breathing. The differential of this function with respect to time produced a pseudo-flow value that is proportionate to the difference between the rate of the thoracic volume expansion and nasal air flow. The pulmonary airflow obstruction assessed by measuring “Enhanced Pause (Penh)” using the following formula according to the manufacturer's recommendations: Penh=PEP/PIP×Pause. […] In order to measure the methacholine responses, mice were placed in the chamber and baseline readings were taken and averaged for 3 min. Mice were nebulized with saline or methacholine at increasing doses (1-100 mg/ml) for 3 min and the Penh readings were taken and averaged for 3 min after each nebulization. […]

NALM-6-UM1 cells = test: Fas-mediated apoptosis, DNA fragmentation; assay type: cell-based, human
Procedure: FIGS. 6A-6D: Apoptotic Responses of Human B-lineage Leukemia Cells to Fas Ligation in Relationship to BTK Expression and Function. Anti-BTK and anti-Actin dual-antibody Western blot analysis of whole cell lysates from BTK-positive NALM-6-UM1 (N6-U1) and BTK-deficient RAMOS-1 cells (FIG. 5A). Anti-Fas Western blot analysis of the same cell lysates. [B] Cells were harvested 24 hours after exposure to anti-Fas antibody at 0.1 μg/ml or 1.0 μg/ml concentrations and DNA from Triton-X-100 lysates was analyzed for fragmentation, as described by Uckun, F. M., et al. (1996) Science 273, 1096-1100; and Uckun, F. M., et al. (1995) Science 267, 886-91. […] [C.1] and [C.2] […] N6-U1 cells were harvested 24 hours after exposure to anti-Fas antibody at 0.1 μg/ml or 1.0 μg/ml concentrations and DNA from Triton-X-100 lysates was analyzed for fragmentation, as described by Uckun, F. M., et al. (1996) Science 273, 1096-1100; and Uckun, F. M., et al. (1995) Science 267, 886-91. […]
Apoptosis Assays. […] MC540 binding (as an early marker of apoptosis) and PI permeability (as a marker of advanced stage apoptosis) were simultaneously measured in DT-40 cells 24 hours after exposure to anti-Fas antibody as previously described (Uckun, F. M., et al. (1996) Science 273, 1096-1100). Whole cells were analyzed with a FACStar Plus flow cytometer (Becton Dickinson, San Jose, Calif.). […]

Structure (SMILES) | Requirement of Methacholine for an Increase in Penh of 100% ([1]; 15 mg/Kg intraperitoneally) [mg/mL] | Requirement of Methacholine for an Increase in Penh of 200% ([1]; 15 mg/Kg intraperitoneally) [mg/mL] | Requirement of Methacholine for an Increase in Penh of 100% ([1]; 50 mg/Kg intraperitoneally) [mg/mL] | Requirement of Methacholine for an Increase in Penh of 200% ([1]; 50 mg/Kg intraperitoneally) [mg/mL] | sensitivity to Fas-mediated apoptosis after pretreatment (NALM-6-UM1 cells; 10 μM x 4 hours, then anti-Fas 0.1 or 1.0 μg/ml, 24 hours) | apoptosis by compound alone (NALM-6-UM1 cells; 10 μM, 4 hour treatment)
CC(O)=C(C#N)C(=O)Nc1cccc(C(F)(F)F)c1 [LFM-A8, α-Cyano-β-hydroxy-β-methyl-N-[3-(trifluoromethyl)phenyl]-propenamide] | 36.8 | 82 | 67.5 | 129 | – | –
C/C(O)=C(\C#N)C(=O)Nc1cc(Br)ccc1Br [LFM-A13, α-Cyano-β-hydroxy-β-methyl-N-(2,5-dibromophenyl)-propenamide] | – | – | – | – | sensitive to Fas-mediated apoptosis | did not induce apoptosis
